The text below walks through data of ChEMBL document CHEMBL1932926, “New substituted C-19-andrographolide analogues with potent cytotoxic activities” (2012).

Common to all, as to type: functional
Conditions in all cases: read-out: ED50 (the source's name)

A short description of assay [1]: Cytotoxicity against rat ASK cells by SRB assay. On the technique in general: The SRB assay estimates cell density from bound dye.
The next assay concerns MCF7. Put plainly: Cytotoxicity against human MCF7 cells by SRB assay.
The next assay deals with P388. The experiment in a line: Cytotoxicity against mouse P388 cells by SRB assay.
The subject of a further assay is Lu1. Put plainly: Cytotoxicity against human Lu1 cells by SRB assay.
The next assay deals with Col2. Put plainly: Cytotoxicity against human Col2 cells by SRB assay.
For another assay, the system named is KB. The experiment in a line: Cytotoxicity against human KB cells by SRB assay.

For the molecule `C=C1CC[C@@H]2[C@](C)(CO[Si](C)(C)C(C)(C)C)[C@H](O)CC[C@@]2(C)[C@@H]1C/C=C1/C(=O)OC[C@H]1O`, the EC50 is 15.5 µM in assay [1]; 47 µM with MCF7; 8.39 µM in the assay with P388; 48.8 µM in the assay on Lu1; 17.1 µM with Col2; 40.7 µM in the assay with KB.
In the case of `C=C1CC[C@@H]2[C@](C)(CO[Si](C)(C)C(C)(C)C)[C@H](OC(C)=O)CC[C@@]2(C)[C@@H]1C/C=C1/C(=O)OC[C@H]1O`, the EC50 in assay [1] was 8.17 µM; in the assay with MCF7, 9.79 µM; in the assay with P388, 1.71 µM; in the assay with Lu1, 9.62 µM; with Col2, 11.3 µM; in the assay with KB it was 11.2 µM.
Regarding `C=C1CC[C@@H]2[C@](C)(CO[Si](C)(C)C(C)(C)C)[C@H](O)CC[C@@]2(C)[C@@H]1C/C=C1/C(=O)OC[C@H]1OC(C)=O`, the EC50 in assay [1] stood at 3.41 µM; in the assay on MCF7, 10.4 µM; in the assay on P388, 1.03 µM; in the assay on Lu1, 10.4 µM; with Col2 it was 8.94 µM; in the assay with KB it was 10.7 µM.
Regarding `C=C1CC[C@@H]2[C@](C)(CO[Si](C)(C)C(C)(C)C)[C@H](OC(C)=O)CC[C@@]2(C)[C@@H]1C/C=C1/C(=O)OC[C@H]1OC(C)=O`, the EC50 in assay [1] worked out at 1.22 µM; in the assay with MCF7, 2.84 µM; in the assay with P388 it was 0.34 µM; with Lu1, 2.92 µM; in the assay on Col2, 2.23 µM; with KB it was 3.62 µM.
On to `C=C1CC[C@@H]2[C@](C)(CO[Si](C(C)C)(C(C)C)C(C)C)[C@H](O)CC[C@@]2(C)[C@@H]1C/C=C1/C(=O)OC[C@H]1O`, for which the EC50 came out at 2.85 µM in assay [1]; 2.88 µM with MCF7; 0.88 µM in the assay on P388; 3.01 µM in the assay on Lu1; 2.73 µM in the assay on Col2; 2.73 µM in the assay on KB.
Regarding `C=C1CC[C@@H]2[C@](C)(CO[Si](C(C)C)(C(C)C)C(C)C)[C@H](OC(C)=O)CC[C@@]2(C)[C@@H]1C/C=C1/C(=O)OC[C@H]1OC(C)=O`, the EC50 in assay [1] was 7.56 µM; in the assay with MCF7, 14 µM; in the assay on P388 it was 1.41 µM; with Lu1, 18.8 µM; in the assay on Col2 it was 13.6 µM; with KB, 7.39 µM.
As for `C=C1CC[C@@H]2[C@](C)(CO[Si](c3ccccc3)(c3ccccc3)C(C)(C)C)[C@H](O)CC[C@@]2(C)[C@@H]1C/C=C1/C(=O)OC[C@H]1O`, the EC50 in assay [1] came to 5.54 µM; in the assay on MCF7, 8.15 µM; in the assay on P388 it was 0.68 µM; in the assay on Lu1 it was 11.5 µM; in the assay with Col2, 9.65 µM; in the assay on KB it was 11.1 µM.
Regarding `C=C1CC[C@@H]2[C@](C)(CO[Si](c3ccccc3)(c3ccccc3)C(C)(C)C)[C@H](OC(C)=O)CC[C@@]2(C)[C@@H]1C/C=C1/C(=O)OC[C@H]1O`, the EC50 in assay [1] is 10.5 µM; with MCF7, 7.53 µM; with P388 it was 0.5 µM; in the assay on Lu1, 10.9 µM; in the assay with Col2 it was 3.8 µM; in the assay on KB it was 9.86 µM.
Turning to `C=C1CC[C@@H]2[C@](C)(CO[Si](c3ccccc3)(c3ccccc3)C(C)(C)C)[C@H](O)CC[C@@]2(C)[C@@H]1C/C=C1/C(=O)OC[C@H]1OC(C)=O`, the EC50 in assay [1] was 12 µM; in the assay on MCF7 it was 9.63 µM; in the assay on P388, 0.33 µM; with Lu1, 11.9 µM; in the assay with Col2, 10.7 µM; in the assay with KB, 10.5 µM.
Turning to `C=C1CC[C@@H]2[C@](C)(CO[Si](c3ccccc3)(c3ccccc3)C(C)(C)C)[C@H](OC(C)=O)CC[C@@]2(C)[C@@H]1C/C=C1/C(=O)OC[C@H]1OC(C)=O`, the EC50 in assay [1] was 32.8 µM; with MCF7, 45.7 µM; with P388, 1.67 µM; with Lu1, 52.9 µM; with Col2, 12.3 µM; in the assay on KB, 29 µM.
Turning to `C=C1CC[C@@H]2[C@](C)(CO)[C@H](OC(C)=O)CC[C@@]2(C)[C@@H]1C/C=C1/C(=O)OC[C@H]1O`, the EC50 in assay [1] is 58.1 µM; with MCF7 it was 26.4 µM; in the assay on P388 it was 4.78 µM; with Lu1 it was 30.6 µM; in the assay with Col2 it was 27.2 µM; in the assay with KB, 35.6 µM.
As to `C=C1CC[C@@H]2[C@](C)(COC(C)=O)[C@H](O)CC[C@@]2(C)[C@@H]1C/C=C1/C(=O)OC[C@H]1O`, the EC50 in assay [1] amounted to 16.7 µM; in the assay on MCF7, 18.2 µM; in the assay with P388, 2.04 µM; in the assay on Lu1, 14 µM; in the assay with Col2, 12.9 µM; with KB it was 15.3 µM.
As for `C=C1CC[C@@H]2[C@](C)(COC(C)=O)[C@H](OC(C)=O)CC[C@@]2(C)[C@@H]1C/C=C1/C(=O)OC[C@H]1O`, the EC50 was 22.4 µM in assay [1]; 19.7 µM with MCF7; 2.65 µM in the assay with P388; 34.7 µM with Lu1; 15.3 µM with Col2; 35.2 µM with KB.
As to `C=C1CC[C@@H]2[C@](C)(COC(C)=O)[C@H](O)CC[C@@]2(C)[C@@H]1C/C=C1/C(=O)OC[C@H]1OC(C)=O`, the EC50 in assay [1] was determined as 16.3 µM; in the assay with MCF7, 18.5 µM; in the assay with P388 it was 1.62 µM; in the assay on Lu1 it was 19.8 µM; in the assay on Col2, 15.2 µM; with KB it was 26.4 µM.
As to `C=C1CC[C@@H]2[C@](C)(COC(C)=O)[C@H](OC(C)=O)CC[C@@]2(C)[C@@H]1C/C=C1/C(=O)OC[C@H]1OC(C)=O`, the EC50 is 11.4 µM in assay [1]; 10 µM with MCF7; 1.4 µM in the assay with P388; 12.4 µM with Lu1; 10.8 µM with Col2; 11.6 µM in the assay with KB.
For the molecule `C=C1CC[C@@H]2[C@](C)(CO)[C@H](OC(C)=O)CC[C@@]2(C)[C@@H]1C/C=C1/C(=O)OC[C@H]1OC(C)=O`, the EC50 was 11.5 µM in assay [1]; 11 µM with MCF7; 0.69 µM with P388; 8.75 µM with Lu1; 10.2 µM with Col2; 11.7 µM in the assay with KB.
As to `C=C1CC[C@@H]2[C@](C)(COC(c3ccccc3)(c3ccccc3)c3ccccc3)[C@H](O)CC[C@@]2(C)[C@@H]1C/C=C1/C(=O)OC[C@H]1O`, the EC50 in assay [1] worked out at 2.86 µM; in the assay with MCF7 it was 2.72 µM; in the assay with P388, 0.45 µM; in the assay with Lu1 it was 0.88 µM; in the assay on Col2, 2.73 µM; in the assay with KB, 2.42 µM.
In the case of `C=C1CC[C@@H]2[C@](C)(COC(c3ccccc3)(c3ccccc3)c3ccccc3)[C@H](OC(C)=O)CC[C@@]2(C)[C@@H]1C/C=C1/C(=O)OC[C@H]1OC(C)=O`, the EC50 stood at 15.3 µM in assay [1]; 22.7 µM with MCF7; 1.92 µM with P388; 8.37 µM in the assay on Lu1; 22.8 µM with Col2; 9.77 µM in the assay on KB.
Turning to `C=C1CC[C@@H]2[C@]3(C)COC(C)(C)O[C@@H]3CC[C@@]2(C)[C@@H]1C/C=C1/C(=O)OC[C@H]1O`, the EC50 in assay [1] stood at 52.2 µM; with MCF7 it was 42.8 µM; with P388 it was 3.78 µM; in the assay with Lu1 it was 53 µM; in the assay with Col2, 39.8 µM; in the assay on KB it was 66.5 µM.
As to `C=C1CC[C@@H]2[C@](C)(CO)[C@H](O)CC[C@@]2(C)[C@@H]1C/C=C1/C(=O)OC[C@H]1O` [ANDROGRAPHOLIDE], the EC50 in assay [1] stood at 16.2 µM; in the assay with MCF7 it was 15.4 µM; with P388, 2.25 µM; in the assay with Lu1, 13 µM; with Col2, 13.6 µM; in the assay on KB, 27.4 µM.
Turning to `Cc1c2ccncc2c(C)c2c1[nH]c1ccccc12` [ELLIPTECINE], the EC50 in assay [1] worked out at 3.56 µM; in the assay on MCF7 it was 2.71 µM; in the assay with P388, 2.44 µM; with Lu1, 1.62 µM; with Col2, 2.72 µM; in the assay on KB, 2.46 µM.
